One molecule from patent publication US20050196753A1, “Human coactivator-associated arginine methyltransferase 1 (hCARM1)” (priority 2002, published 2005) can be followed below.

This assay concerns the target T1, hCARM1 (Homo sapiens, UniProt Q86X55).
T1 construct: evaluate whether the cloned full-length hCARM1 had methylating activity; made in house; host or cells: baculovirus infected insect cells
T1 sequence (Q86X55 1-608): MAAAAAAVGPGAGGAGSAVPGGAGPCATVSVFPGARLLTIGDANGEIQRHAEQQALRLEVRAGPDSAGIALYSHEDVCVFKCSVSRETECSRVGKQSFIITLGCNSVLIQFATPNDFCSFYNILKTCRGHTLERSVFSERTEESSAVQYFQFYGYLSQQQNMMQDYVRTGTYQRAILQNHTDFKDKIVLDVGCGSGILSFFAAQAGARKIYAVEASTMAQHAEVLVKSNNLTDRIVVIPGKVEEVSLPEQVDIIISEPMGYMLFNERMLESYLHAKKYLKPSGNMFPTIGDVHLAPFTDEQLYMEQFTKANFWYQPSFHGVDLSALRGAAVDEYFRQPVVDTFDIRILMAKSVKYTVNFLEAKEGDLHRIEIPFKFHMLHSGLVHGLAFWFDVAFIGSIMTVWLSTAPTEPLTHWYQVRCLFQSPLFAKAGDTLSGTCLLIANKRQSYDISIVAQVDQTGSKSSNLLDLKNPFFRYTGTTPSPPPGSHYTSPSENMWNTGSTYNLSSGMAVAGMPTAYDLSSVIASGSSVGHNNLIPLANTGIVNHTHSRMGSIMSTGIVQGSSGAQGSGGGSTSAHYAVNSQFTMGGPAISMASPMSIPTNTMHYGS
Put plainly: Methylation assay: inhibition of hCARM1 mediated methylation of Histone H3. In kind it is biochemical. The following applies: Histone H3 substrate, 30° C. for 1 hr, SDS-PAGE/film. Here is the method: Methylation assay protocol: Reactions were performed in IX methylation buffer containing 20 mM Tris.HCl, pH 8.0, 200 mM NaCl and 0.4 mM EDTA. Reactions were assembled with 2.5 ug of Histone H3 and increasing amounts of hCARM1 (0.25 ug, 0.5 ug, 1.25 ug, 2.5 ug, 3.75 ug, 5 ug, or 7.5 ug). A mock reaction where hCARM1 was omitted was used as the negative control. Reactions were incubated at 30° C. for 1 hr. prior to loading on a 10-20% gradient SDS-PAGE. The gel was fixed, dried and exposed to film.
A methylation reaction was performed in order to evaluate whether the cloned full-length hCARM1 had methylating activity. Mouse CARM1 has been previously shown to specifically methylate Histone H3 in vitro and in vivo.

For `N[C@@H](CCS)C(=O)O` [homocysteine], the “inhibition of hCARM1 mediated methylation” value is reported as “effectively inhibited”.
